Experimental findings from patent US11136317B2, “NADPH oxidase 4 inhibitors” (ACTELION PHARMACEUTICALS LTD, priority 2015, dated 2021) are described below.

This test addresses T1, human NOX4 (Homo sapiens, UniProt Q9NPH5).
T1 construct: The full-length human NOX4 (NM_016931.3) transcript was cloned; expressed in transfected cells
T1 sequence (Q9NPH5 1-578): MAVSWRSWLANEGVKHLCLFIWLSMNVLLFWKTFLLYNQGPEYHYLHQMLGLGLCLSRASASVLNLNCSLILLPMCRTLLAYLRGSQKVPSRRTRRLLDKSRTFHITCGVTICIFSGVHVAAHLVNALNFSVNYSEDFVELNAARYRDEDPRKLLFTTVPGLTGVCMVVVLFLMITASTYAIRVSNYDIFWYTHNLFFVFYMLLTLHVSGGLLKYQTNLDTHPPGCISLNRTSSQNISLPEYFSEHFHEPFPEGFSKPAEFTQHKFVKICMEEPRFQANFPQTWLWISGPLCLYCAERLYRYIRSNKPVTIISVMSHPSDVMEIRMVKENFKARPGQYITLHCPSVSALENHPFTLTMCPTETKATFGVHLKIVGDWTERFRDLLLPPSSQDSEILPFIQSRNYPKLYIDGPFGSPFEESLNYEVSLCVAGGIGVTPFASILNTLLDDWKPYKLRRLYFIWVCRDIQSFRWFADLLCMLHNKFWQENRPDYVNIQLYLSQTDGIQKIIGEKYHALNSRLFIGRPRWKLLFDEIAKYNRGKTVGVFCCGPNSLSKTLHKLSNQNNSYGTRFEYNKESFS
T1 sequence (P13498 1-195 partner): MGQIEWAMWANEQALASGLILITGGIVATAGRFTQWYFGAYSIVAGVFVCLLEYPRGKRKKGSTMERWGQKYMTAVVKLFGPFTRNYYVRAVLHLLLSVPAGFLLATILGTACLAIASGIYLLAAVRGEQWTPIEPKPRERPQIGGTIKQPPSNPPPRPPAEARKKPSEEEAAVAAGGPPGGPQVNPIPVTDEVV
Put plainly: Amplex Red activity assay (cellular H2O2 formation in hNOX4 T-REx-293 cells). Format: cell-based. As to conditions: tet-induced 24 h, extracellular H2O2 by Amplex Red, 60 min 25° C., geometric mean if determined several times. Put shortly:
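Tet-induced (1 μg/mL, 24 h) HEK293 T-REx cells stably expressing full-length human NOX4, 20 000 cells/well, exposed to compounds (10 concentrations, 50 μM to 100 nM; 1.25% DMSO) for 60 min at 25°C. Extracellular H2O2 detected by Amplex Red resorufin fluorescence (ex 550/em 600 nm) versus vehicle; IC50 calculated.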

Take `CN1CCOc2ccc(C(=O)Nc3ccc4oc(N5CCC56COC6)nc4c3)cc21` [Example 180, 4-Methyl-3,4-dihydro-2H-benzo[1,4]oxazine-6-carboxylic acid [2-(6-oxa-1-aza-spiro[3.3]hept-1-yl)-benzooxazol-5-yl]-amide]: the IC50 came to 1.77 µM.
In the case of `CN1CCOc2ccc(C(=O)Nc3ccc4oc(N5CCC56CCOC6)nc4c3)cc21` (stereo not shown) [Example 181, 4-Methyl-3,4-dihydro-2H-benzo[1,4]oxazine-6-carboxylic acid [2-(6-oxa-1-aza-spiro[3.4]oct-1-yl)-benzooxazol-5-yl]-amide], the half-inhibitory concentration (IC50) turned out to be 2.44 µM.
For `CN1CCOc2ccc(C(=O)Nc3ccc4oc(N5CCC56CCOCC6)nc4c3)cc21` [Example 182, 4-Methyl-3,4-dihydro-2H-benzo[1,4]oxazine-6-carboxylic acid [2-(7-oxa-1-aza-spiro[3.5]non-1-yl)-benzooxazol-5-yl]-amide], the half-maximal inhibitory concentration (IC50) came out at 3.39 µM.
On to `CN1CCOc2ccc(C(=O)Nc3ccc4oc(N5CCCC5)nc4c3)cc21` [Example 183, 4-Methyl-3,4-dihydro-2H-benzo[1,4]oxazine-6-carboxylic acid (2-pyrrolidin-1-yl-benzooxazol-5-yl)-amide], for which the half-inhibitory concentration (IC50) worked out at 8.7 µM.
With `CN1CCOc2ccc(C(=O)Nc3ccc4oc(N5CCCC56COC6)nc4c3)cc21` [Example 184, 4-Methyl-3,4-dihydro-2H-benzo[1,4]oxazine-6-carboxylic acid [2-(2-oxa-5-aza-spiro[3.4]oct-5-yl)-benzooxazol-5-yl]-amide], the IC50 turned out to be 1.89 µM.
With `CN1CCOc2ccc(C(=O)Nc3ccc4oc(N5CCCCC5)nc4c3)cc21` [Example 185, 4-Methyl-3,4-dihydro-2H-benzo[1,4]oxazine-6-carboxylic acid (2-piperidin-1-yl-benzooxazol-5-yl)-amide], the IC50 is 3.86 µM.
Next, `CN1CCOc2ccc(C(=O)Nc3ccc4oc(N5CCC(O)CC5)nc4c3)cc21` [Example 186, 4-Methyl-3,4-dihydro-2H-benzo[1,4]oxazine-6-carboxylic acid [2-(4-hydroxy-piperidin-1-yl)-benzooxazol-5-yl]-amide]: 3.45 µM; `CN1CCOc2ccc(C(=O)Nc3ccc4oc(N5CCC(F)(F)CC5)nc4c3)cc21` [Example 187, 4-Methyl-3,4-dihydro-2H-benzo[1,4]oxazine-6-carboxylic acid [2-(4,4-difluoro-piperidin-1-yl)-benzooxazol-5-yl]-amide]: 3.39 µM.
`CN1CCOc2ccc(C(=O)Nc3ccc4oc(N5CCCC(F)(F)C5)nc4c3)cc21` [Example 188, 4-Methyl-3,4-dihydro-2H-benzo[1,4]oxazine-6-carboxylic acid [2-(3,3-difluoro-piperidin-1-yl)-benzooxazol-5-yl]-amide]: the concentration for half-maximal inhibition (IC50) was 3.64 µM.
For `CN1CCOc2ccc(C(=O)Nc3ccc4oc(N5CCCC6(COC6)C5)nc4c3)cc21` [Example 189, 4-Methyl-3,4-dihydro-2H-benzo[1,4]oxazine-6-carboxylic acid [2-(2-oxa-6-aza-spiro[3.5]non-6-yl)-benzooxazol-5-yl]-amide], the IC50 stood at 2.19 µM.
As to `CN1CCOc2ccc(C(=O)Nc3ccc4oc(N5CCC6(CC5)COC6)nc4c3)cc21` [Example 190, 4-Methyl-3,4-dihydro-2H-benzo[1,4]oxazine-6-carboxylic acid [2-(2-oxa-7-aza-spiro[3.5]non-7-yl)-benzooxazol-5-yl]-amide], the IC50 stood at 3.58 µM.
As for `COC1CCN(c2nc3cc(NC(=O)c4ccc5c(c4)N(C)CCO5)ccc3o2)CC1` [Example 191, 4-Methyl-3,4-dihydro-2H-benzo[1,4]oxazine-6-carboxylic acid [2-(4-methoxy-piperidin-1-yl)-benzooxazol-5-yl]-amide], the half-inhibitory concentration (IC50) worked out at 4.38 µM.
On to `CN1CCOc2ccc(C(=O)Nc3ccc4oc(N5CCOCC5)nc4c3)cc21` [Example 192, 4-Methyl-3,4-dihydro-2H-benzo[1,4]oxazine-6-carboxylic acid (2-morpholin-4-yl-benzooxazol-5-yl)-amide], for which the IC50 is 4.32 µM.
